In patent publication US11821109B2, “Compartmentalised combinatorial chemistry by microfluidic control” (President and Fellows of Harvard College, priority 2004, dated 2023):

Key:
[1] = target: T1, E. coli β-galactosidase (LacZ) (Escherichia coli, UniProt P00722); test: LacZ inhibition assay in microfluidic droplets with fluorogenic substrate FMG; type: biochemical
Description: In the enzyme inhibition assay, the rate of catalysis is determined by using a non-fluorescent substrate for LacZ, fluorescein mono-β-D-galactoside (FMG), and measuring the appearance of the fluorescent product, fluorescein (excitation […], emission 514 nm). All components of the LacZ inhibition assay are dissolved in assay buffer (10 mM MgCl2, 50 mM NaCl, 1 mM DTT, 100 μg/ml BSA, 10
Leading into each droplet forming module (FIG. 15) are two TEFLON® tubes leading from syringe pumps. The channels leading from each tube merge to create a single flow before entering the droplet forming module. The two syringes feeding into the first droplet forming module contain, (a) 50 μM PETG in assay buffer, and (b), assay buffer. The two syringes feeding into the second droplet forming module contain, (c) 100 nM LacZ in assay buffer, and (d), assay buffer. The two syringes feeding into the third droplet forming module contain, (e) 5 mM FMG in assay buffer, and (f), assay buffer. The final concentration of each component in each droplet is independently controllable by adjusting relative flow rates of each component and buffer solution while maintaining a constant combined flow rate from both syringes.
The first droplet fusion mixes the inhibitor (PETG) with the enzyme (LacZ). After the combined droplet has spent two minutes in a delay line it is fused with a third droplet containing the fluorogenic enzyme substrate (FMG). Finally, after all the components are mixed the reaction is observed by measuring fluorescence of individual droplets or by integrating fluorescent light from droplets with the same concentration of each component during 10-second exposure time at multiple points in the second 10 min long delay line. Each fluorescence intensity value at different positions is proportional to the amount of product at different reaction times. Rate of product formation is linear during initial reaction time and initial rate (v) can be determined from linear fitting. […]

[2] = target: T1, E. coli β-galactosidase (LacZ); conditions: Huang, 1991, cited from earlier work
[3] = target: T2, PTP1B (Homo sapiens, UniProt P18031); conditions: cited from earlier work
T2 sequence (P18031 1-435): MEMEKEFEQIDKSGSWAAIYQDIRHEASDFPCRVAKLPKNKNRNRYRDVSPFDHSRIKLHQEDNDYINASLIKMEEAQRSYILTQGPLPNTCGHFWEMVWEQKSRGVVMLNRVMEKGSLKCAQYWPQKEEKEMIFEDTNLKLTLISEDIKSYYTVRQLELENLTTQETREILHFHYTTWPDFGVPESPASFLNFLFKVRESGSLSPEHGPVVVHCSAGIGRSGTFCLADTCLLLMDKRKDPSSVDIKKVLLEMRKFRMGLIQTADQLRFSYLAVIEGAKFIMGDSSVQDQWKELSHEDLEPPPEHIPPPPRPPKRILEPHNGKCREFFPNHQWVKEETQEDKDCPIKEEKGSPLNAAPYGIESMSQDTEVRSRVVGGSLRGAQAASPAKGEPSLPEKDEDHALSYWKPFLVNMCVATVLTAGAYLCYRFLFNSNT

[4] = target: T3, human recombinant PTP1B, residues 1-322 (Homo sapiens, UniProt P18031); test: Screening for PTP1B inhibitors in microcapsules in a microfluidic system, fluorogenic substrate DiFMUP; type: biochemical; conditions: Example 2, 100 μM compound solution, PTP1B 50 mU/ml
T3 construct: human recombinant PTP1B, residues 1-322; purchased Biomol Research Laboratories, Inc
T3 sequence (P18031 1-322): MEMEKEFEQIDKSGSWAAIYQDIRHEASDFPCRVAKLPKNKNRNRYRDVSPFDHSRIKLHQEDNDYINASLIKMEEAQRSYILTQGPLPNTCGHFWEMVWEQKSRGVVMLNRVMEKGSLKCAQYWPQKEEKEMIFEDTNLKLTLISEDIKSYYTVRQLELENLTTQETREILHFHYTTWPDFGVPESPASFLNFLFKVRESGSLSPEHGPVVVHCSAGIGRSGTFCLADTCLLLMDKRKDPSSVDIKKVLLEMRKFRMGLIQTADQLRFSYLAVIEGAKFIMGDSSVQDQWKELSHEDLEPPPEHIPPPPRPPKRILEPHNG
Description: All water-soluble reagents are dissolved in (25 mM HEPES, pH 7.4, 125 mM NaCl, 1 mM EDTA), a buffer compatible with PTP1B activity. […] Each microcapsule containing target enzyme is fused with a microcapsule containing compound 2 or a microcapsule containing hydrocinnamic acid. Microcapsules containing either compound 2 or hydrocinnamic acid can be formed by switching between injection with syringes containing compound 2 and hydrocinnamic acid.
After microcapsule fusion the contents are rapidly mixed. After this point the microcapsules are run for up to 1 min through a 60 cm long microchannel (to allow inhibitor binding). This microchannel is then merged with a second microchannel containing aqueous microcapsules containing the fluorogenic PTP1B substrate 6,8-difluoro-4-methylumbelliferyl phosphate (DiFMUP) (Molecular Probes) in 25 mM HEPES, pH 7.4, 125 mM NaCl, 1 mM EDTA and the microcapsules fused pairwise. […] Fluorescence of the microcapsules due to production of DiFMU (excitation/emmission maxima 358/452 nm; blue fluorescence) is measured. […]
The 96 mixtures are distributed into 96 wells of a microtitre plate. […] Inhibitors reduce the amount of non-fluorescent substrate (DiFMUP) converted to the dephosphorylated product (DiFMU; excitation/emmission maxima 358/452 nm; blue fluorescence). Microcapsule fluorescence is then analysed.

[5] = Compartmentalisation of small molecules in water-in-fluorocarbon emulsions (exchange between microdroplets); type: physicochemical; conditions: water-in-perfluorooctyl bromide emulsion; 24 hours after mixing
Description: Water-in-fluorocarbon emulsions containing 95% (v/v) perfluorooctyl bromide, 5% (v/v) phosphate buffered saline containing the molecule of interest in solution, and 2% (w/v) C8F17C11H22OP(O)[N(CH2CH2)2O]2 (F8H1 IDMP) as surfactant were formed essentially as (Sadtler et al., 1996) by extrusion (15 times) through 14 μm filters (Osmonics) or by homogenising for 5 min at 25,000 r.p.m. using an Ultra-Turrax T8 Homogenizer (DCA) with a 5 mm dispersing tool. Emulsions were made containing a series of small fluorescent molecules dissolved in the aqueous phase at concentrations from […] to 2 mM. These molecules, including calcein, texas red, fluorescein, coumarin 102, 7-hydroxycoumarm-3-carboxylic acid and 7-diethylamino-4-methyl coumarin (coumarin 1), had molecular weights from 203 to 625 Da and Log P values—calculated using SRC's Log Kow/KowWin Program (Meylan and Howard, 1995)—ranging from −0.49 to 4.09. […]
Compartmentalisation of small molecules in a water-in-fluorocarbon emulsions made using microfluidic systems. […] These molecules, including calcein, texas red, fluorescein, coumarin 102, 7-hydroxycoumarin-3-carboxylic acid and 7-diethylamino-4-methyl coumarin (coumarin 1), had molecular weights from 203 to 625 Da and Log P values—calculated using SRC's Log Kow/KowWin Program (Meylan and Howard, 1995)—ranging from −0.49 to 4.09. […]

[6] = 30 nM LacZ, 0 to 13 μM PETG, 10 to 700 μM FMG

T1 sequence (P00722 2-1024): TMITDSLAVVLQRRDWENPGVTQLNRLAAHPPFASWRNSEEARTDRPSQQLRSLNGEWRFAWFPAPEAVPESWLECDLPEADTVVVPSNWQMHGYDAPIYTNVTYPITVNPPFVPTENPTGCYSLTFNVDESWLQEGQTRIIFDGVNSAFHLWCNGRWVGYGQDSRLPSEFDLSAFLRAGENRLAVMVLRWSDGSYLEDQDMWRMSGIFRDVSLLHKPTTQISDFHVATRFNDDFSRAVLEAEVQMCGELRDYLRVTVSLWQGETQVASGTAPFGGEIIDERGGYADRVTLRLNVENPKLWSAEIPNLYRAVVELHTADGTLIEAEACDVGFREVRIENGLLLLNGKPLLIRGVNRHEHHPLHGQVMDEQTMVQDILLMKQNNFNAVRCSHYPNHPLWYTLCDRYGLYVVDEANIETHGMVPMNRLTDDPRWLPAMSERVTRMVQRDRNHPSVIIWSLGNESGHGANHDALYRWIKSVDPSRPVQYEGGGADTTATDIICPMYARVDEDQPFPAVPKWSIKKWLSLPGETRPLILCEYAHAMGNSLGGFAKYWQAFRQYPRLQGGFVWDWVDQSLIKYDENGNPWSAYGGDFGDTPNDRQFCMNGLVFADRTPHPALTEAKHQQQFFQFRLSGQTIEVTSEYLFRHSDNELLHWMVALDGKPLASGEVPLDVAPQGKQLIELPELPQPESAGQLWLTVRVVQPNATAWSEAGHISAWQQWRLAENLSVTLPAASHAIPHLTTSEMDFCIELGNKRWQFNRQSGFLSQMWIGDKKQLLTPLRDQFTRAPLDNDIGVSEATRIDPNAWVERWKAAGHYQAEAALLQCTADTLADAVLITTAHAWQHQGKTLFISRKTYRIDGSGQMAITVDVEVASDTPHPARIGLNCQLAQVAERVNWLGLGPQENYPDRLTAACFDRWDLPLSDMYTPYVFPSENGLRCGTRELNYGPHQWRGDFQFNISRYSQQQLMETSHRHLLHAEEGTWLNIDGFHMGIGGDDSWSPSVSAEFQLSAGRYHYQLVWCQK

O=C1OC2(c3ccc(O)cc3Oc3cc(O[C@@H]4O[C@H](CO)[C@H](O)[C@H](O)[C@H]4O)ccc32)c2ccccc21 (stereo partly drawn) [FMG, fluorescein mono-β-D-galactoside]
XM of FMG for LacZ as determined [1, 6]: within 20% of the previously published value | XM of FMG for LacZ, previously published value [2]: 118 µM

O=C(O)CCc1ccccc1 [hydrocinnamic acid]
PTP1B inhibitor or not (statement) [3]: not a PTP1B inhibitor | Fluorescence of the microcapsules due to production of DiFMU [4]: exhibiting blue fluorescence

OCC1OC(SCCc2ccccc2)C(O)C(O)C1O [PETG, phenylethyl β-D-thiogalactopyranoside]
Ki of PETG for LacZ as determined [1, 6]: within the range of the previously published value | Mode of inhibition ([1]; Lineweaver-Burk plot): competitive | Ki ([2]; read-out: Ki of PETG for LacZ, previously published value): 980 nM

texas red
Exchange between microdroplets/compartments [5]: No exchange

O=C(O)CN(CC(=O)O)Cc1cc2c(cc1O)Oc1cc(O)c(CN(CC(=O)O)CC(=O)O)cc1C21OC(=O)c2ccccc21 [calcein]
Exchange between microdroplets/compartments [5]: No exchange
